Test results as given in US12637661B2, “Methods of enhancing stem cell differentiation into beta cells” (Vertex Pharmaceuticals Incorporated, priority 2018, dated 2026).

Experiments:
EZH2 = EZH2 (Homo sapiens, UniProt Q15910); conditions: cited from earlier work
[1] = tested on: stage 5 cells of hESC line (D97, D114, and D241 HUES8); assay: Stage 5 of directed differentiation of hESC line treated with EZH2 inhibitor, HDAC inhibitor or combination; type: cell-based, human; conditions: for percentage of pre-SC-β cells (C-PEP+, NKX6-1+): stage 5, FIG. 15; for performance compared with other inhibitors of the same class: stage 5, FIGS. 14 and 15; for proportion of all β cell types: stage 5, FIG. 14
Method: The mRNA expression of NGN3 was investigated in each steps of directed differentiation described herein (FIG. 5), and it was observed that cells expressed NGN3 to initiate SC-β cell differentiation (FIG. 7). The effects of inhibition of histone methylation and deacetylation on SC-β cell differentiation were investigated (FIG. 6). Stage 5 of the directed differentiation as described herein (FIGS. 5-6) in hESC line (D97, D114, and […] HUES8) was treated with an EZH2 inhibitor (DZNep), HDAC inhibitor (KD5170), and a combination thereof (FIG. 6). Candidate inhibitor screening was performed as described in FIG. 18. Inhibition of EZH2 or HDAC in stage 5 (D97 HUES8) increased endocrine cells and SC-β cells (FIG. 8). […] SC-β cells comprised 35.4% at the end of stage 5 with DZNep and KD5170. […] Combined inhibition of EZH2 and HDAC in stage 5 was tested as described in FIG. 17. Combined inhibition of EZH2 and HDAC in stage 5 ([…] HUES8) increased Neorogenin3+ progenitors in stage 5 (FIGS. 12-13). Combined inhibition of EZH2 and HDAC in stage 5 increased NKX6.1+ progenitor cells (FIG. 16).

Chain of EZH2 (Q15910 whole entry, species assumed): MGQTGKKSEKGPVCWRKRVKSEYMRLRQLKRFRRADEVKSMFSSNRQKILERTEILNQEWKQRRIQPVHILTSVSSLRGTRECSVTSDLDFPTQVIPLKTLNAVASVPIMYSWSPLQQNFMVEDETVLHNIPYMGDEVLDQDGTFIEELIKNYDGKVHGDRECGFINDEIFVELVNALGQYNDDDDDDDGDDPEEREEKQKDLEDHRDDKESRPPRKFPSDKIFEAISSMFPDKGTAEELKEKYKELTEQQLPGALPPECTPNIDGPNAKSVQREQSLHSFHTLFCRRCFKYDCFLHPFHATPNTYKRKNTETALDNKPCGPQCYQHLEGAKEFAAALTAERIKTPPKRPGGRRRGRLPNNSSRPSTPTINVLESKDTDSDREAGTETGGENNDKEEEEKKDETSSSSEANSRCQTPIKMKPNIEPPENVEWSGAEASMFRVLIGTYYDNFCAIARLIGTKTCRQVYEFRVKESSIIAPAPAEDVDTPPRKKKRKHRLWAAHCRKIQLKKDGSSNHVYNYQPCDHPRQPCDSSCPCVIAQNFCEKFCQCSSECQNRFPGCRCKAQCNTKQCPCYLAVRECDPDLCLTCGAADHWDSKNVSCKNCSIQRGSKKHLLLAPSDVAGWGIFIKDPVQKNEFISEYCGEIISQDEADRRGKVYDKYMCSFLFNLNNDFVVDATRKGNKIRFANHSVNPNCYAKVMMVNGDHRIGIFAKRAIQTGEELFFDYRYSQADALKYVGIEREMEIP
Chain of EZH2 (O75530 whole entry partner, species assumed): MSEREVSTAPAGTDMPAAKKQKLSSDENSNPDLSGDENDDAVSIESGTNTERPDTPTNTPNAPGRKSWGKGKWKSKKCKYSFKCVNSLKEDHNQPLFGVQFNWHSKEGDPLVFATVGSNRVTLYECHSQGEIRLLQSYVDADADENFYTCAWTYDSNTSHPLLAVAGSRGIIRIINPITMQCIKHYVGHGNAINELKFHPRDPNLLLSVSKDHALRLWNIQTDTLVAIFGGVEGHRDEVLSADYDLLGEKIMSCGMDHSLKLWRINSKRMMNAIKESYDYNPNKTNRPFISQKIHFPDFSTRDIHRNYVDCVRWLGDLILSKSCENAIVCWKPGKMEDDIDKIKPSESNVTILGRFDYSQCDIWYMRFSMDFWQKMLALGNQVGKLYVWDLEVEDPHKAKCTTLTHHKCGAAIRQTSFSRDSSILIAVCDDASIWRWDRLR
Chain of EZH2 (Q15022 whole entry partner, species assumed): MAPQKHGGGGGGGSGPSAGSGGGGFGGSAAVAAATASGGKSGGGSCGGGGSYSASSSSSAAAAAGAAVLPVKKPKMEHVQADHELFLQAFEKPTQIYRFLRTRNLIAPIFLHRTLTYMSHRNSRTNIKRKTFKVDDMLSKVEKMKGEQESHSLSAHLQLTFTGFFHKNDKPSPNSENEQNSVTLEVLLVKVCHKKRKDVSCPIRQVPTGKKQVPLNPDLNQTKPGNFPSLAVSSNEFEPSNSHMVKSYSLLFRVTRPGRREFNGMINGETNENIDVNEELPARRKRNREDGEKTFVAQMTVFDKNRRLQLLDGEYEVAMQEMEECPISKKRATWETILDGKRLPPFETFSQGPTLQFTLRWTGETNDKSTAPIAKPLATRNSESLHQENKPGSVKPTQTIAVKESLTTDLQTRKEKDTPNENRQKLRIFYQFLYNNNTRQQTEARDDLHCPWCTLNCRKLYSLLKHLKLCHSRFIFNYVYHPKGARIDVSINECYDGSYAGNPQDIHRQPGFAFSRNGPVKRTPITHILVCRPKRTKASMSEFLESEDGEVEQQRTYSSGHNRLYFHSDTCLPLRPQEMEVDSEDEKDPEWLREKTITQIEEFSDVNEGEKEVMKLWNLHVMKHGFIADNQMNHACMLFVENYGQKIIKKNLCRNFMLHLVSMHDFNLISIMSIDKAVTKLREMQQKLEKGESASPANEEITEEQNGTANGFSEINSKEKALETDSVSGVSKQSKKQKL

## Nc1nccc2c1ncn2[C@@H]1C=C(CO)[C@@H](O)[C@H]1O [DZNep, 3-deazaneplanocin A]
EZH2
  selectivity / specificity for EZH2 (in words): may not be specific to EZH2
[1]; 1 μM throughout stage 5
  viability: without affecting viability
[1]; 1 μM throughout stage 5, FIGS. 19-21
  (VMAT1+INS−) EC population removed: more than half
[1]; stage 5
  proportion / differentiation of endocrine cells (CHGA+): increased
[1]
  percentage of pre-SC-β cells (C-PEP+, NKX6-1+): increased
  performance compared with other inhibitors of the same class: outperforms other EZH2 inhibitors
[1]; stage 5, FIG. 16
  progenitors cells (NKX6-1+): increased
[1]; stage 5, FIG. 19
  VMAT1+INS− EC population: specific decrease
[1]; stage 5, FIG. 20
  NKX6.1-ChromA+ PH cells: concomitant increase
[1]; stage 5, FIG. 21
  NKX6.1+INS+ SC-β cell population: unaffected

## CCCc1cc(C)[nH]c(=O)c1CNC(=O)c1cc(-c2ccc(N3CCN(C(C)C)CC3)nc2)cc2c1cnn2C(C)C [UNC1999]
EZH2
  selectivity / specificity for EZH2 (in words): less selective
[1]
  proportion of all β cell types: did not increase

## CC(=O)SCC(=O)c1ccc(NS(=O)(=O)c2ccc(OCCCN(C)C)cc2)nc1 [KD5170]
[1]
  percentage of pre-SC-β cells (C-PEP+, NKX6-1+): increased
  performance compared with other inhibitors of the same class: outperforms other HDAC inhibitors

## CC(/C=C/C(=O)NO)=C\[C@@H](C)C(=O)c1ccc(N(C)C)cc1 [TSA]
[1]
  percentage of pre-SC-β cells (C-PEP+, NKX6-1+): did not increase

## CCCC(=O)[O-].[Na+] [sodium butyrate]
[1]
  percentage of pre-SC-β cells (C-PEP+, NKX6-1+): did not increase

## CC[C@H](C)n1cc(C)c2c(C(=O)NCc3c(C)cc(C)[nH]c3=O)cc(-c3ccc(N4CCNCC4)nc3)cc21 [GSK126]
[1]
  proportion of all β cell types: did not increase

## O=C(CCCCCCC(=O)Nc1ccccc1)NO [SAHA]
[1]
  percentage of pre-SC-β cells (C-PEP+, NKX6-1+): did not increase
